Read-outs that look alike come from different tables or passages of the source.
How the values were obtained:
[1] = design: method as in PMID 27641613; details: compared with DSM 265; cited from earlier work
[2] = design: method as in PMID 27641613; details: compared with DSM 265; cited from earlier work; remark: listed apart in the source
[3] = design: method as in PMID 27641613; details: compared with DSM 265; cited from earlier work; remark: listed apart in the source
[4] = system: 3D7 cells; design: method as in PMID 24073986; details: read-out: IC50 parasite growth in vitro, 3D7 cells; cited from earlier work
[5] = design: method as in PMID 24073986; details: cited from earlier work
[6] = target: T1, PfDHODH (Phe158–Ser569) (Plasmodium falciparum, UniProt Q08210); design: method as in PMID 24073986; details: previous work; read-out: IC50 against PfDHODH; cited from earlier work
T1 construct: enzyme activity determination of PfDHODH (Phe158–Ser569) and hDHODH (Met30–Arg396); made in house
T1 sequence (Q08210 158-569): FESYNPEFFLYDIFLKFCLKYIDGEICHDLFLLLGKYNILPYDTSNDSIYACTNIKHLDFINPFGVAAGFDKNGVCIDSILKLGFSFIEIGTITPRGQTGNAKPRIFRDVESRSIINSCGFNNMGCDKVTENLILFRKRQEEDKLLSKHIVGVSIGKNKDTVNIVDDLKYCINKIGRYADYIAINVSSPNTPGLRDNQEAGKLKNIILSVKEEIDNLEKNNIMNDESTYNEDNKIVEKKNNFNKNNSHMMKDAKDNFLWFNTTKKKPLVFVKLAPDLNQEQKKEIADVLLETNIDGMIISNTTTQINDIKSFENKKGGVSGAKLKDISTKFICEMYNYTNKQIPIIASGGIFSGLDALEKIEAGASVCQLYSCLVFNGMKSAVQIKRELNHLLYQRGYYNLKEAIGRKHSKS

[7] = design: method as in PMID 24073986; details: cited from earlier work; remark: listed apart in the source
[8] = system: Dd2 cells; design: method as in PMID 24073986; details: read-out: IC50 parasite growth in vitro, Dd2 cells; cited from earlier work
[9] = target: T2, hDHODH (Met30–Arg396) (Homo sapiens, UniProt Q02127); design: method as in PMID 24073986; details: previous work; cited from earlier work
T2 construct: enzyme activity determination of PfDHODH (Phe158–Ser569) and hDHODH (Met30–Arg396); made in house
T2 sequence (Q02127 29-395 limits assumed): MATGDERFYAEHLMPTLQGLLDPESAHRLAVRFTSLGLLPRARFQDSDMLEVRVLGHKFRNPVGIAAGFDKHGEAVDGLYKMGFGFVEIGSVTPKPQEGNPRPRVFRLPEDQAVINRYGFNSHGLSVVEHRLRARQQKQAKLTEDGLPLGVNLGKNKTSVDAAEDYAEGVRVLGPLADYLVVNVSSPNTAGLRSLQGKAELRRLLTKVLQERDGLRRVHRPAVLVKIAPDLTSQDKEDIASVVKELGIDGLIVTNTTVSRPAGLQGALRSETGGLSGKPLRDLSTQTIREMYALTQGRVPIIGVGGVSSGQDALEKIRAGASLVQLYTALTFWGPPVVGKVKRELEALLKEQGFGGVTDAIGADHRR

[10] = target: T2, hDHODH (Met30–Arg396); assay: In vitro enzyme assay, hDHODH (DCIP reduction); type: biochemical; details: for IC50: in vitro enzyme assay
Method: (§1) Protein expression, purification, and enzyme activity determination of PfDHODH (Phe158–Ser569) and hDHODH (Met30–Arg396) were performed according to our previous work. The enzymes were diluted to a final concentration of 10 nM using the assay buffer containing 50 mM HEPES (pH 8.0), 150 mM KCl, 0.1% Triton X-100 supplemented with 100 µM UQ0, and 120 µM DCIP. The mixture was transferred into a 96-well plate and incubated with or without various amounts of inhibitors for 5 min at room temperature, and then the dihydroorotate was added to a final concentration of 500 µM to initiate the reaction. The reaction was monitored by measuring the decrease in DCIP in the absorption at 600 nm at each 30 s over a period of 6 min. Brequinar and DSM1 were measured as the positive controls for hDHODH and PfDHODH, respectively. Percent inhibition relative to no inhibitor control was calculated by (1 − Vi/V0) × 100. For the determination of the IC50 value of the inhibitor, eight or nine different concentrations were applied. Each inhibitor concentration point was tested in triplicate, and the IC50 values were calculated using the sigmoidal fitting option of the program Origin 8.0 (Originlab, Northampton, MA, US).

[11] = target: T1, PfDHODH (Phe158–Ser569); assay: In vitro enzyme assay, PfDHODH (DCIP reduction); type: biochemical; details: for inhibitory activity against PfDHODH (in words): qualitative statement
Method: as §1, with “Brequinar and DSM1 were measured as the positive controls for hDHODH and PfDHODH, respectively.” left out

[12] = in vitro enzyme assay, read-out: IC50 (μM) PfDHODH

Compound | melting point [°C] | IC50 [10] [µM] | IC50 [11, 12] [µM] | other results
Cc1cc(Nc2ccc(C(F)(F)F)nc2)n2nc(C(C)(F)F)nc2n1 [Compound 9] | – | – | – | solubility (in words) [1]: improved solubility; intrinsic clearance (in words) [2]: lower intrinsic clearance; plasma exposure after oral dosing (in words) [3]: increased plasma exposure after oral dosing
CCOC(=O)C1=C(Nc2ccc3ccccc3c2)OCC1=O [Compound 10] | – | – | – | IC50 [4]: 0.015 µM; efficacy in vivo (in words) [5]: less effective in vivo; IC50 [6]: 0.006 µM; metabolic properties (in words) [7]: poor metabolic properties; IC50 [8]: 0.018 µM; species selectivity over hDHODH [9]: > 14,000 fold
O=C(O)C1=C(Nc2ccc3ccccc3c2)OCC1=O [Compound 11, 2-(Naphthalen-2-ylamino)-4-oxo-4,5-dihydrofuran-3-carboxylic acid] | 164.4 to 165 | > 10 | 0.106 ± 0.009 | inhibitory activity against PfDHODH (in words) [11]: lower inhibitory activity in comparison with 10
CCNC(=O)C1=C(Nc2ccccc2)OCC1=O [Compound 12, N-Ethyl-4-oxo-2-(phenylamino)-4,5-dihydrofuran-3-carboxamide] | 146.9 to 147.4 | 2.4 ± 0.1 | > 10 | inhibitory activity against PfDHODH (in words) [11]: inactive
CCNC(=O)C1=C(Nc2ccc3c(c2)CCC3)OCC1=O [Compound 13, 2-[(2,3-Dihydro-1H-inden-5-yl)amino]-N-ethyl-4-oxo-4,5-dihydrofuran-3-carboxamide] | 127.7 to 128.2 | > 10 | > 10 | –
CNC(=O)C1=C(Nc2ccc3ccccc3c2)OCC1=O [Compound 14, N-Methyl-2-(naphthalen-2-ylamino)-4-oxo-4,5-dihydrofuran-3-carboxamide] | 126.3 to 126.9 | > 10 | 9 ± 1 | –
CCNC(=O)C1=C(Nc2ccc3ccccc3c2)OCC1=O [Compound 15, N-Ethyl-2-(naphthalen-2-ylamino)-4-oxo-4,5-dihydrofuran-3-carboxamide] | 121.8 to 123 | > 10 | 4.8 ± 0.4 | –
CCCNC(=O)C1=C(Nc2ccc3ccccc3c2)OCC1=O [Compound 16, 2-(Naphthalen-2-ylamino)-4-oxo-N-propyl-4,5-dihydrofuran-3-carboxamide] | – | > 10 | > 10 | inhibitory activity against PfDHODH (in words) [11]: lost their activities
O=C1COC(Nc2ccc3ccccc3c2)=C1C(=O)NC1CC1 [Compound 18, N-Cyclopropyl-2-(naphthalen-2-ylamino)-4-oxo-4,5-dihydrofuran-3-carboxamide] | 140.8 to 141.6 | > 10 | 6 ± 1 | –
O=C1COC(Nc2ccc3ccccc3c2)=C1C(=O)NCC1CC1 [Compound 19, N-(Cyclopropylmethyl)-2-(naphthalen-2-ylamino)-4-oxo-4,5-dihydrofuran-3-carboxamide] | 164.8 to 165.3 | > 10 | > 10 | inhibitory activity against PfDHODH (in words) [11]: lost the inhibitory activity
NNC(=O)C1=C(Nc2ccc3ccccc3c2)OCC1=O [Compound 20, 2-(Naphthalen-2-ylamino)-4-oxo-4,5-dihydrofuran-3-carbohydrazide] | 167.3 to 167.9 | > 10 | 0.07 ± 0.01 | –
CCN1CN(c2ccc3c(c2)CCC3)C2=C(C(=O)CO2)C1=O [Compound 21, 1-(2,3-Dihydro-1H-inden-5-yl)-3-ethyl-2,3-dihydrofuro[2,3-d]pyrimidine-4,5(1H,6H)-dione] | 128.6 to 129.4 | > 10 | > 10 | –
CN1CN(c2ccc3ccccc3c2)C2=C(C(=O)CO2)C1=O [Compound 22, 3-Methyl-1-(naphthalen-2-yl)-2,3-dihydrofuro[2,3-d]pyrimidine-4,5(1H,6H)-dione] | 127.9 to 128.5 | > 10 | 8 ± 1 | –
CCN1CN(c2ccc3ccccc3c2)C2=C(C(=O)CO2)C1=O [Compound 23, 3-Ethyl-1-(naphthalen-2-yl)-2,3-dihydrofuro[2,3-d]pyrimidine-4,5(1H,6H)-dione] | 128.3 to 129 | > 10 | 4 ± 1 | –
CCCN1CN(c2ccc3ccccc3c2)C2=C(C(=O)CO2)C1=O [Compound 24, 1-(Naphthalen-2-yl)-3-propyl-2,3-dihydrofuro[2,3-d]pyrimidine-4,5(1H,6H)-dione] | 128.6 to 129.7 | > 10 | 12 ± 6 | –
O=C1COC2=C1C(=O)N(C1CC1)CN2c1ccc2ccccc2c1 [Compound 25, 3-Cyclopropyl-1-(naphthalen-2-yl)-2,3-dihydrofuro[2,3-d]pyrimidine-4,5(1H,6H)-dione] | 128.8 to 129.5 | > 10 | – | IC50 [11]: 5 ± 1 µM
NN1CN(c2ccc3ccccc3c2)C2=C(C(=O)CO2)C1=O [Compound 26, 3-Amino-1-(naphthalen-2-yl)-2,3-dihydrofuro[2,3-d]pyrimidine-4,5(1H,6H)-dione] | 168.4 to 169.2 | > 10 | 0.023 ± 0.001 | species selectivity over hDHODH ([10]; PfDHODH versus hDHODH): > 400 fold; fold more active against PfDHODH than compound 20 ([11]; compared with compound 20): 3 fold

Reference: paper PMC6099574, “Synthesis, Design, and Structure–Activity Relationship of the Pyrimidone Derivatives as Novel Selective Inhibitors of Plasmodium falciparum Dihydroorotate Dehydrogenase” (Molecules : A Journal of Synthetic Chemistry and Natural …, 2018)
